Test results as given in patent publication US11117883B2 (Ariad Pharmaceuticals, Inc., priority 2016, dated 2021).

Columns and labels:
Experiment in all cases: c-Kit assay: Ba/F3 KIT mutant viability (Cell Titer-Glo, 72 hours)
Format in all cases: cell-based
[1] = biological target: T1, BAF3 FL KIT EX11DEL/D816H (Homo sapiens, UniProt P10721, D816H, cells depend on it, form not given); settings: viability after 72 hours
T1 construct: "BAF3 FL KIT EX11DEL/ D816H"
Procedure: (§1) KIT cDNAs were synthesized by GenScript and cloned into the pLVX-IRES-Puro vector (Clontech). Viral particles were produced by transfecting pLVX-IRES-puro vectors containing KIT mutant genes into HEK293 cells (Invitrogen) using the Trans-Lentiviral ORF Packaging Kit (Thermo Scientific). 48 hours post-transfection, virus-containing supernatants were harvested and incubated for another 48-72 hours with parental Ba/F3 cells (DSMZ) in the presence of 10 ng/mL […] (R&D Systems). Transduced Ba/F3 cells were then selected by IL-3 withdrawal and puromycin (0.5-1 μg/mL, Invitrogen).
(§2) Cell lines (i.e., EX11DEL, EX11DEL/D816H, EX11DEL/T670I, and EX11DEL/V654A) were plated into 384 well plates using RPMI 1640 supplemented with 10% FBS at densities that produced linear growth and incubated at 37° C. in 5% (v/v) CO2. Cells were treated with eight concentrations of compound over a 4-fold dilution (10 μM to 0.61 nM) and viability was assessed using Cell Titer-Glo assay (Promega) after 72 hours. Data were plotted as percent viability relative to vehicle-treated cells. Dose-responses curves were generated and used to calculate IC50 values.

[2] = biological target: T2, BAF3 FL KIT EX11DEL/T6701 (Homo sapiens, UniProt P10721, T670I, cells depend on it, form not given); settings: EX11DEL/T6701, viability after 72 hours
T2 construct: "BAF3 FL KIT EX11DEL/ T6701"
T2 sequence (P10721 with tags, fused parts or gaps DEL557-558/T670I, form open): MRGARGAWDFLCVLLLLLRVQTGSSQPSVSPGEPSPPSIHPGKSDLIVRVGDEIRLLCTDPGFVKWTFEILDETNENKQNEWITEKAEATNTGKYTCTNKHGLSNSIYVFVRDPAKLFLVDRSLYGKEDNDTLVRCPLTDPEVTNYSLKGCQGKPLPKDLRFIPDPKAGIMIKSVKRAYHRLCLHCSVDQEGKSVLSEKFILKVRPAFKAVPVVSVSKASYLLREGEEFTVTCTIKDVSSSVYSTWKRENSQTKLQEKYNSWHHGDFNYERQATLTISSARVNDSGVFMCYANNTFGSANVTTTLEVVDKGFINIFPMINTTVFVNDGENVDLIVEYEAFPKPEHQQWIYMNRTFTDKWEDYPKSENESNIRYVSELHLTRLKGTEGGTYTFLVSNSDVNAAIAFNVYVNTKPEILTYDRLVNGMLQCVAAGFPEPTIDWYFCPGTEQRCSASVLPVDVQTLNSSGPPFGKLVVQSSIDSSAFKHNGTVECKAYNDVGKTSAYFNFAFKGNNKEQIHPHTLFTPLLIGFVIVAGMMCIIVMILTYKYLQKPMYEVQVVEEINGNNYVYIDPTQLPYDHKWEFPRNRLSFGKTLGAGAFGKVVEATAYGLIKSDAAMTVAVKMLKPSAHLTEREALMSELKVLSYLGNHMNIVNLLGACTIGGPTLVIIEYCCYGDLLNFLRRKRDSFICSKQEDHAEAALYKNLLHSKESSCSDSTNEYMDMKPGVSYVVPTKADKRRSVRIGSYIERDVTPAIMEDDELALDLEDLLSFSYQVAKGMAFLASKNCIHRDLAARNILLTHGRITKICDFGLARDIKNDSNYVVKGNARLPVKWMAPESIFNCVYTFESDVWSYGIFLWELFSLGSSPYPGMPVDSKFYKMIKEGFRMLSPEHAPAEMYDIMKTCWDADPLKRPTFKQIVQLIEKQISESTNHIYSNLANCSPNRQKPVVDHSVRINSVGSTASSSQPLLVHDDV
Procedure: as §1, §2

[3] = biological target: T3, BAF3 FL KIT EX11DEL (Homo sapiens, UniProt P10721, cells depend on it, form not given); settings: viability after 72 hours
T3 construct: "BAF3 FL KIT EX11DEL"
T3 sequence (P10721 with tags, fused parts or gaps DEL557-558): as the sequence (P10721 with tags, fused parts or gaps DEL557-558/T670I, form open) above, with I668T counted along it
Procedure: as §1, §2

[4] = biological target: T4, BAF3 FL KIT EX11DEL/V654A (Homo sapiens, UniProt P10721, V654A, cells depend on it, form not given); settings: viability after 72 hours
T4 construct: "BAF3 FL KIT EX11DEL/ V654A"
T4 sequence (P10721 with tags, fused parts or gaps DEL557-558/V654A, form open): as the sequence (P10721 with tags, fused parts or gaps DEL557-558/T670I, form open) above, with V652A, I668T counted along it
Procedure: as §1, §2

T1 sequence (P10721 with tags, fused parts or gaps DEL557-558/D816H, form open): as the sequence (P10721 with tags, fused parts or gaps DEL557-558/T670I, form open) above, with I668T, D814H counted along it

Compound | GI50 [1] | GI50 [2] | GI50 [3] | GI50 [4]
Cc1ccc(C(=O)Nc2cc(C(F)(F)F)ccn2)cc1C#Cc1ccc2c(c1)ncn2CCCN(C)C [Compound I-6, 3-((1-(3-(dimethylamino)propyl)-1H-benzo[d]imidazol-5-yl)ethynyl)-4-methyl-N-(4-(trifluoromethyl)pyridin-2-yl)benzamide] | 100 to 10000 nM | 50 to 100 nM | 10 to 50 nM | 100 to 10000 nM
CNC(=O)Cn1cnc2cc(C#Cc3cc(C(=O)Nc4cc(C(F)(F)F)ccn4)ccc3C)ccc21 [Compound I-1, 4-Methyl-3-((1-(2-(methylamino)-2-oxoethyl)-1H-benzo[d]imidazol-5-yl)ethynyl)-N-(4-(trifluoromethyl)pyridin-2-yl)benzamide] | 100 to 10000 nM | 100 to 10000 nM | < 10 nM | 100 to 10000 nM
Cc1ccc(C(=O)Nc2cc(C(F)(F)F)ccn2)cc1C#Cc1ccc2c(c1)ncn2-c1cnn(C)c1 [Compound I-19, 4-methyl-3-((1-(1-methyl-1H-pyrazol-4-yl)-1H-benzo[d]imidazol-5-yl)ethynyl)-N-(4-(trifluoromethyl)pyridin-2-yl)benzamide] | 10 to 50 nM | < 10 nM | < 10 nM | 10 to 50 nM
Cc1ccc(NC(=O)c2cc(C(F)(F)F)ccn2)cc1C#Cc1ccc2c(c1)ncn2-c1cnn(C)c1 [Compound I-44, N-(4-methyl-3-((1-(1-methyl-1H-pyrazol-4-yl)-1H-benzo[d]imidazol-5-yl)ethynyl)phenyl)-4-(trifluoromethyl)picolinamide] | 10 to 50 nM | 10 to 50 nM | < 10 nM | 10 to 50 nM
Cn1cc(-n2cnc3cc(C#Cc4cc(C(=O)Nc5cc(C(F)(F)F)ccn5)ccc4F)ccc32)cn1 [Compound I-51, 4-fluoro-3-((1-(1-methyl-1H-pyrazol-4-yl)-1H-benzo[d]imidazol-5-yl)ethynyl)-N-(4-(trifluoromethyl)pyridin-2-yl)benzamide] | 100 to 10000 nM | < 10 nM | < 10 nM | 10 to 50 nM
Cc1ccc(NC(=O)c2ccc(CN3CCCC3)c(C(F)(F)F)c2)cc1C#Cc1ccc2c(c1)ncn2-c1cnn(C)c1 [Compound I-47, N-(4-methyl-3-((1-(1-methyl-1H-pyrazol-4-yl)-1H-benzo[d]imidazol-5-yl)ethynyl)phenyl)-4-(pyrrolidin-1-ylmethyl)-3-(trifluoromethyl)benzamide] | 100 to 10000 nM | 50 to 100 nM | 10 to 50 nM | 100 to 10000 nM
Cc1ccc(NC(=O)c2cc(C(F)(F)F)ccn2)cc1C#Cc1ccc2c(c1)ncn2C [Compound I-45, N-(4-methyl-3-((1-methyl-1H-benzo[d]imidazol-5-yl)ethynyl)phenyl)-4-(trifluoromethyl)picolinamide] | 50 to 100 nM | 10 to 50 nM | 10 to 50 nM | 50 to 100 nM
Cc1ccc(C(=O)Nc2cc(C(F)(F)F)ccn2)cc1C#Cc1ccc2c(c1)ncn2-c1cccc(N2CCN(C)CC2)c1 [Compound I-14, 4-methyl-3-((1-(3-(4-methylpiperazin-1-yl)phenyl)-1H-benzo[d]imidazol-5-yl)ethynyl)-N-(4-(trifluoromethyl)pyridin-2-yl)benzamide] | 100 to 10000 nM | 100 to 10000 nM | 50 to 100 nM | 100 to 10000 nM
Cc1ccc(C(=O)Nc2cc(C(F)(F)F)ccn2)cc1C#Cc1ccc2c(c1)ncn2-c1cn[nH]c1 [Compound I-35, 3-((1-(1H-pyrazol-4-yl)-1H-benzo[d]imidazol-5-yl)ethynyl)-4-methyl-N-(4-(trifluoromethyl)pyridin-2-yl)benzamide] | 10 to 50 nM | 10 to 50 nM | < 10 nM | 10 to 50 nM
Cc1ccc(NC(=O)c2cc(C(F)(F)F)ccn2)cc1C#Cc1ccc2c(c1)ncn2-c1cnn(CCO)c1 [Compound I-39, N-(3-((1-(1-(2-hydroxyethyl)-1H-pyrazol-4-yl)-1H-benzo[d]imidazol-5-yl)ethynyl)-4-methylphenyl)-4-(trifluoromethyl)picolinamide] | 10 to 50 nM | < 10 nM | < 10 nM | 10 to 50 nM
Cc1ccc(C(=O)Nc2cc(C(F)(F)F)ccn2)cc1C#Cc1ccc2c(c1)ncn2CCN(C)C [Compound I-3, 3-((1-(2-(dimethylamino)ethyl)-1H-benzo[d]imidazol-5-yl)ethynyl)-4-methyl-N-(4-(trifluoromethyl)pyridin-2-yl)benzamide] | 100 to 10000 nM | 100 to 10000 nM | 50 to 100 nM | 100 to 10000 nM
Cc1ccc(C(=O)Nc2cc(C(F)(F)F)ccn2)cc1C#Cc1ccc2c(c1)ncn2-c1cnn(C2CCNCC2)c1 [Compound I-26, 4-methyl-3-((1-(1-(piperidin-4-yl)-1H-pyrazol-4-yl)-1H-benzo[d]imidazol-5-yl)ethynyl)-N-(4-(trifluoromethyl)pyridin-2-yl)benzamide] | 10 to 50 nM | 10 to 50 nM | < 10 nM | 10 to 50 nM
Cc1ccc(C(=O)Nc2cc(C(F)(F)F)ccn2)cc1C#Cc1ccc2c(c1)ncn2-c1cn(C)cn1 [Compound I-23, 4-methyl-3-((1-(1-methyl-1H-imidazol-4-yl)-1H-benzo[d]imidazol-5-yl)ethynyl)-N-(4-(trifluoromethyl)pyridin-2-yl)benzamide] | 10 to 50 nM | < 10 nM | < 10 nM | 10 to 50 nM
Cc1ccc(NC(=O)c2cc(C(F)(F)F)ccn2)cc1C#Cc1ccc2c(c1)ncn2-c1cnn(C2CCN(C)CC2)c1 [Compound I-40] | 100 to 10000 nM | 10 to 50 nM | < 10 nM | 100 to 10000 nM
Cc1ccc(C(=O)Nc2cc(C(F)(F)F)ccn2)cc1C#Cc1ccc2c(c1)ncn2C [Compound I-8, 4-methyl-3-((1-methyl-1H-benzo[d]imidazol-5-yl)ethynyl)-N-(4-(trifluoromethyl)pyridin-2-yl)benzamide] | 50 to 100 nM | 10 to 50 nM | 10 to 50 nM | 10 to 50 nM
Cc1ccc(C(=O)Nc2cc(C(F)(F)F)ccn2)cc1C#Cc1ccc2c(c1)ncn2-c1cnn(C2CCN(C)CC2)c1 [Compound I-27, 4-methyl-3-((1-(1-(1-methylpiperidin-4-yl)-1H-pyrazol-4-yl)-1H-benzo[d]imidazol-5-yl)ethynyl)-N-(4-(trifluoromethyl)pyridin-2-yl)benzamide] | 10 to 50 nM | 10 to 50 nM | < 10 nM | 10 to 50 nM
Cc1ccc(C(=O)Nc2cc(C(F)(F)F)ccn2)cc1C#Cc1ccc2c(c1)ncn2-c1cnn(C2CCOCC2)c1 [Compound I-33, 4-methyl-3-((1-(1-(tetrahydro-2H-pyran-4-yl)-1H-pyrazol-4-yl)-1H-benzo[d]imidazol-5-yl)ethynyl)-N-(4-(trifluoromethyl)pyridin-2-yl)benzamide] | 10 to 50 nM | < 10 nM | < 10 nM | 10 to 50 nM
Cn1cc(-n2cnc3cc(C#Cc4cc(NC(=O)c5cc(C(F)(F)F)ccn5)ccc4F)ccc32)cn1 [Compound I-52, N-(4-fluoro-3-((1-(1-methyl-1H-pyrazol-4-yl)-1H-benzo[d]imidazol-5-yl)ethynyl)phenyl)-4-(trifluoromethyl)picolinamide] | 100 to 10000 nM | < 10 nM | < 10 nM | 50 to 100 nM
Cc1ccc(NC(=O)c2cc(C(F)(F)F)ccn2)cc1C#Cc1ccc2c(c1)ncn2-c1cnn(CCN(C)C)c1 [Compound I-41, N-(3-((1-(1-(2-(dimethylamino)ethyl)-1H-pyrazol-4-yl)-1H-benzo[d]imidazol-5-yl)ethynyl)-4-methylphenyl)-4-(trifluoromethyl)picolinamide] | 100 to 10000 nM | 10 to 50 nM | < 10 nM | 50 to 100 nM
Cc1ccc(C(=O)Nc2cc(C(F)(F)F)ccn2)cc1C#Cc1ccc2c(c1)ncn2CCN1CCOCC1 [Compound I-5, 4-methyl-3-((1-(2-morpholinoethyl)-1H-benzo[d]imidazol-5-yl)ethynyl)-N-(4-(trifluoromethyl)pyridin-2-yl)benzamide] | 100 to 10000 nM | 100 to 10000 nM | 50 to 100 nM | 100 to 10000 nM
CCn1cnc2cc(C#Cc3cc(C(=O)Nc4cc(C(F)(F)F)ccn4)ccc3C)ccc21 [Compound I-7, 3-((1-ethyl-H-benzo[d]imidazol-5-yl)ethynyl)-4-methyl-N-(4-(trifluoromethyl)pyridin-2-yl)benzamide] | 100 to 10000 nM | 50 to 100 nM | 10 to 50 nM | 100 to 10000 nM
Cc1ccc(C(=O)Nc2ccc(N3CCN(C)CC3)c(C(F)(F)F)c2)cc1C#Cc1ccc2c(c1)ncn2C [Compound I-22, 4-methyl-3-((1-methyl-1H-benzo[d]imidazol-5-yl)ethynyl)-N-(4-(4-methylpiperazin-1-yl)-3-(trifluoromethyl)phenyl)benzamide] | 100 to 10000 nM | 100 to 10000 nM | 100 to 10000 nM | 100 to 10000 nM
